Common to all, as to test: NCI anticancer screen, dose series, 48 h
Assay [1] deals with ACHN renal.
Assay [2] deals with HOP-92 NSCLC.
Assay [3] deals with OVCAR-4 ovarian.
Assay [4] concerns SF-268 CNS.
For assay [5], the system named is RPMI-8226 leukemia.
In assay [6] the test system is HCT-116 colon.
Assay [7] deals with OVCAR-3 ovarian.
Assay [8] concerns HCC-2998 colon.
Assay [9] concerns M14 melanoma.
Assay [10] concerns NCI-H23 lung.
Assay [11] relates to NCI-H226 lung.
Assay [12] concerns IGROV1 ovarian.
Assay [13] has as its system A549 NSCLC.
Assay [14] concerns HL-60(TB) leukemia.
Assay [15] has as its system SNB-75 CNS.
In assay [16] the test system is MCF7 breast.
For assay [17], the system named is A498 renal.
In assay [18] the test system is EKVX NSCLC.
Assay [19] concerns MDA-MB-231 breast.

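Method: 48-hour compound exposure of cells in 96-well plates, five concentrations, linear interpolation of endpoints. The concentration for full growth arrest is given as TGI.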

Results on nine molecules are retold here after PubChem BioAssay (NCI).

For the molecule `COc1ccc(C(=O)Cc2c(C(=O)c3ccccc3)c3ccccc3n2C(=O)c2ccccc2)cc1`, the TGI in assay [1] is greater than 100 µM; in [2], greater than 100 µM; in assay [3], greater than 100 µM; in assay [4] it was greater than 100 µM; in assay [5], 70.9 µM; in assay [6] it was greater than 100 µM. Moreover, the TGI in assay [7], in assay [8], in assay [9], in assay [10], in assay [11] and in [12] was greater than 100 µM throughout. Further, the figures for the TGI in [13], in [14] and in [15] were greater than 100 µM, greater than 100 µM and 99.6 µM, respectively.
Consider `CNC(=O)c1n[nH]nc1Sc1c([N+](=O)[O-])ncn1C`, for which the TGI in [1], in assay [16], in assay [2], in assay [3], in [4] and in [6] was greater than 100 µM each time. Also, the TGI in assay [7], in assay [8], in assay [9], in assay [10], in [17] and in assay [12] was greater than 100 µM each time. Further, the TGI in assay [13], in assay [18] and in assay [19] was greater than 100 µM in each case.
For `COC(=O)N1CCc2c(nc(N(C)CCO)[nH]c2=O)C1`, the TGI in [1], in [2], in assay [4], in assay [5], in [6] and in assay [7] was greater than 100 µM in each case. Also, the TGI in [8], in assay [9], in [10], in [17], in [11] and in assay [12] was greater than 100 µM throughout. In addition, the TGI in assay [13], in assay [18], in assay [14] and in assay [15] was greater than 100 µM in each case.
`Nc1nc(N)c(C2=CCNCC2)c(=O)[nH]1`: the TGI in assay [1], in assay [16], in [2], in [3], in [4] and in [5] was greater than 100 µM throughout. Further, the TGI in assay [6], in assay [7], in assay [9], in assay [10], in [17] and in assay [11] was greater than 100 µM each time. The TGI in [12], in assay [13], in [18], in assay [14], in [15] and in assay [19] was greater than 100 µM each time.
With `Nc1nc(Cl)c2ncn(Cc3ccc(CCl)cc3)c2n1`, the TGI in [1] was 25.1 µM; in assay [16], 16.8 µM; in [2], greater than 100 µM; in assay [3] it was 30.1 µM; in [4], 8.38 µM; in assay [5] it was greater than 100 µM. In addition, the TGI came out at 14.5 µM in assay [6]; 5.5 µM in assay [7]; 8.95 µM in assay [8]; 37.7 µM in [9]; 30.4 µM in assay [10]; 84.6 µM in assay [17]. The TGI in assay [11] is 37.1 µM; in assay [12], 22.9 µM; in assay [13] it was 76.2 µM; in assay [18], 7.22 µM; in assay [14], greater than 100 µM; in assay [15], 90.2 µM. Moreover, in [19], the TGI was 34.6 µM.
As for `CC(C)(C)OC(=O)c1cnc(Cl)cn1`, the TGI in assay [1] was 99.6 µM; in assay [16], greater than 100 µM; in [2], 18.4 µM; in [3] it was 91.9 µM; in assay [4] it was greater than 100 µM; in assay [5] it was greater than 100 µM. Besides, the TGI in [6] was greater than 100 µM; in [9], greater than 100 µM; in [10] it was 55.4 µM; in [11] it was greater than 100 µM; in assay [12], 44.7 µM; in assay [13], greater than 100 µM. The values for the TGI in [18], in [15] and in assay [19] were 64.3 µM, greater than 100 µM and greater than 100 µM, respectively.
Turning to `Nc1ccc2nc(Nc3ccc(F)cc3)cnc2c1`, the TGI in assay [1], in [3], in assay [4], in assay [5], in assay [6] and in assay [7] was greater than 100 µM in each case. The TGI in assay [8], in [9], in assay [11], in [13], in assay [18] and in assay [14] was greater than 100 µM in each case. In [15], this molecule registered a TGI greater than 100 µM.
With `COc1cc(C2c3cc(O)c(OC)cc3C3OCC2C3CO)ccc1O` (centres undefined), the TGI in assay [1], in assay [16], in assay [2], in [3], in [4] and in [5] was greater than 100 µM throughout. The TGI in assay [6], in [7], in assay [8], in assay [9], in [10] and in assay [17] was greater than 100 µM in each case. Also, the TGI in assay [11], in assay [13], in assay [18], in assay [14], in assay [15] and in assay [19] was greater than 100 µM throughout.
`CSc1nc(Cl)c(Br)c(Sc2nc(N)nc3nc[nH]c23)n1`: the TGI in assay [1] came to 30.3 µM; in [2] it was 19.2 µM; in [3] it was 23.3 µM; in assay [4], 14.9 µM; in assay [5], 16.4 µM; in assay [6] it was 12.4 µM. Moreover, the TGI worked out at 29 µM in assay [7]; 15.2 µM in assay [8]; 15.3 µM in [9]; 24 µM in [10]; 22.3 µM in assay [11]; 28.2 µM in assay [12]. Besides, the TGI in assay [13] was 48.7 µM; in [14], 13.3 µM; in assay [15] it was 9.74 µM.
